Data published in paper PMC13012276 (British journal of pharmacology, 2022).
Several values for one entry are separate records, joined by “and”; a condition that tells them apart may be missing. Identical values can stand only once. Like-named read-outs stand apart in the source and are kept apart here. Marks after values point to notes of the source that are not given here.

Assays:
[1] = system: Nav channels; conditions: ref Ghovanloo, Shuart, et al. (2018), cited from earlier work
[2] = system: Nav channels; experiment: CBD inhibition of Nav channels; type: cell-based; conditions: Table 1, from literature CBD values
[3] = target: T1, human Nav1.7 channels (Homo sapiens, UniProt Q15858); experiment: Steady-state inactivation; type: cell-based
[4] = system: voltage-gated sodium (Nav) channels in rat CA1 hippocampal neurons; conditions: cited from earlier work
[5] = target: T1, human Nav1.7 channels; experiment: Activation / peak conductance protocol, automated patch-clamp; type: cell-based
[6] = target: T1, human Nav1.7 channels; experiment: State-dependent inhibition of sodium currents, automated patch-clamp; type: cell-based
[7] = system: TTX-resistant Nav current in rat DRG neurons; type: cell-based
[8] = system: TTX-sensitive Nav channels; conditions: read-out: IC50 of TTX-sensitive channels; cited from earlier work

T1 sequence (Q15858 whole entry): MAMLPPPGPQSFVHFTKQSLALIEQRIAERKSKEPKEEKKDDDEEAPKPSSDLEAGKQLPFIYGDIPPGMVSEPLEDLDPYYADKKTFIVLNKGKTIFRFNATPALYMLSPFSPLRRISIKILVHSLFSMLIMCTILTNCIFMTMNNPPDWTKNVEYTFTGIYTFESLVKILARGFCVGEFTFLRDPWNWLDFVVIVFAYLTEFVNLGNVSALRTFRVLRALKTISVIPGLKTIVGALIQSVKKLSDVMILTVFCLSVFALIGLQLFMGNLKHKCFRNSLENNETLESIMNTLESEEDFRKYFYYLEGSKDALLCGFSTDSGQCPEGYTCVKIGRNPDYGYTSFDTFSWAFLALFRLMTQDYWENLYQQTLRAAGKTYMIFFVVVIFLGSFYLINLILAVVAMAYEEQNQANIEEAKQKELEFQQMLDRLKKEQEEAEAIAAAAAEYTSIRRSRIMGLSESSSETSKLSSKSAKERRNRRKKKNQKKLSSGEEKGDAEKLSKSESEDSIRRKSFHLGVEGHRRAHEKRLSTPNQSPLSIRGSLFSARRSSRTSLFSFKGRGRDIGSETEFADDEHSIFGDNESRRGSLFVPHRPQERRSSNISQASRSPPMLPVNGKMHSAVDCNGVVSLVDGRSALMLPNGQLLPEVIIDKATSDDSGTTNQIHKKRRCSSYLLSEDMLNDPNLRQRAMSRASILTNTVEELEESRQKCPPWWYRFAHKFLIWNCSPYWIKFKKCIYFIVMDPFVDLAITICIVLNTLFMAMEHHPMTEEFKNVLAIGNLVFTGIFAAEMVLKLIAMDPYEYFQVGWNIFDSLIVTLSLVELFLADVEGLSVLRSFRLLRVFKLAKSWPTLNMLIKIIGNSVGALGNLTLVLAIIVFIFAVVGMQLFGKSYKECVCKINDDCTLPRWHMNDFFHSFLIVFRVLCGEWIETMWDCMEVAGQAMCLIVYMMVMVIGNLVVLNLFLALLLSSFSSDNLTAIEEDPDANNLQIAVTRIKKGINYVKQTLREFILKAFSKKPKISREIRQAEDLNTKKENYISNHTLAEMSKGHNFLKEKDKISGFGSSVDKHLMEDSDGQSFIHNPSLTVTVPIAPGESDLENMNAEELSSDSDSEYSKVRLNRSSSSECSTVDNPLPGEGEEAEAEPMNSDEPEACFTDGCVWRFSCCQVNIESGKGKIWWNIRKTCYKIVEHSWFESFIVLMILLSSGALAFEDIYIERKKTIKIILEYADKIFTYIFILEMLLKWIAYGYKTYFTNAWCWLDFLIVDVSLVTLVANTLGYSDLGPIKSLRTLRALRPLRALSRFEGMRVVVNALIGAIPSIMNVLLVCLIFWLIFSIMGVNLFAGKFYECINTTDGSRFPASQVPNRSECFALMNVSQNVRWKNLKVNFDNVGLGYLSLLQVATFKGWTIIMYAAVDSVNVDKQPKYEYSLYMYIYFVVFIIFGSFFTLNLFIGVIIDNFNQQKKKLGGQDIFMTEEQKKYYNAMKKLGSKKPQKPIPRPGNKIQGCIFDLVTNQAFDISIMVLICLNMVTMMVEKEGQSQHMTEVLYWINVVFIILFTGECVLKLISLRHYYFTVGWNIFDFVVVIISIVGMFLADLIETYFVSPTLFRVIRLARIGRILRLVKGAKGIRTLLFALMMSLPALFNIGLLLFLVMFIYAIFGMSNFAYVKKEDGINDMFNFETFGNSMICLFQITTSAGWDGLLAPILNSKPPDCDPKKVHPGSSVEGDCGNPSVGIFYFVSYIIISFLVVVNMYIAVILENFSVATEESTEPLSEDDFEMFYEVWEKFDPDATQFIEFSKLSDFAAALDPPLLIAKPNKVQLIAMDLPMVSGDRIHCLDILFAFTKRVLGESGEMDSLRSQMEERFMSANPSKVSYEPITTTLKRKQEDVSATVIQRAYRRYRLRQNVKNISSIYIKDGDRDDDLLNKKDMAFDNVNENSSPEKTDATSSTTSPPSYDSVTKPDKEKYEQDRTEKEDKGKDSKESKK
T1 sequence (Q07699 19-218 partner): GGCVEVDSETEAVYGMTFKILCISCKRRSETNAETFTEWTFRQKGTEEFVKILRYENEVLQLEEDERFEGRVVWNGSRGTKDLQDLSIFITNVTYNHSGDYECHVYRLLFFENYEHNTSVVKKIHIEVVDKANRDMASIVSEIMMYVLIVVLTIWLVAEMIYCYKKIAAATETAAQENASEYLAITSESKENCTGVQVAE

SMILES: C=C(C)[C@@H]1CCC(C)=C[C@H]1c1c(O)cc(CCCCC)cc1O [CBD, cannabidiol]
- State dependence ([1]; Table 1): ~10^a
- IC50 ([1]; read-out: IC50 on Nav channels, Table 1): 1 to 12 µM
- State dependence [1]: ~ 10 fold
- Concentration/fold state dependence (ratio) [2]: 1.1

SMILES: CCCCCc1cc(O)c(C/C=C(\C)CCC=C(C)C)c(O)c1 [CBG, cannabigerol]
- Hyperpolarization of voltage dependence of SSI [3]: ~ 12 mV
- Percentage shift of inactivation V1/2 relative to vehicle [3]: about 25%
- Rate time constant of open-state inactivation vs vehicle [3]: did not differ significantly
- IC50 ([3]; IC50 for V1/2 (inactivation shift), Hill fit of normalized data, estimated): ~13.2 µM
- inhibition at 15 µM ([3]; read-out: Inhibition of current at the test pulse): ~90%
- Effect on Nav current density and action potential frequency [4]: decreases current density
- IC50 [5]: ~3.5 µM
- Reduction in sodium current density [5]: ~ 90%
- V1/2 of activation [5]: −46.4 ± 5.6 mV
- Vehicle Gmax left [5]: ~ 10%
- slope of activation [5]: 5.2 ± 2.2
- Concentration/fold state dependence (ratio) [6]: 2
- Fold less potent than CBD in inhibiting Nav channels [6]: about 2 fold
- Hill slope [6]: 1.2 ± 0.3 and 2.3 ± 0.5 and 1.6 ± 0.4
- Hill slopes (range across holding potentials) [6]: 1.2–2.3
- Ki [6]: 2 to 20 µM
- Nav channels prevented from opening [6]: ~ 30%
- State dependence [6]: ~10
- State dependence (inactivated vs resting state potency) [6]: ~ 10 fold and ~ 11 fold
- average Hill-slope [6]: ~ 2
- IC50 ([6]; IC50 (range across holding potentials), holding potentials −110 to −90 mV): 4.6 to 18.8 µM
- IC50 ([6]; IC50, holding potential −90 mV, pulse 180 (3 min), mean ± SEM): 4.6 ± 1.1 µM
- IC50 ([6]; IC50, holding potential −100 mV, pulse 180 (3 min), mean ± SEM): 9.3 ± 1 µM
- IC50 ([6]; IC50, holding potential −110 mV, pulse 180 (3 min), mean ± SEM): 18.8 ± 2.9 µM
- Inhibition of TTX-resistant current [7]: ~ 50%

SMILES: NC1=N[C@H](O)[C@H]2[C@H]3O[C@]4(O)O[C@@H]([C@@H](O)[C@@]2(N1)[C@@H]4O)[C@]3(O)CO [TTX, tetrodotoxin]
- IC50 [8]: 0.01 to 0.03 µM
